# Results as given in ChEMBL document CHEMBL4325853, “Design, synthesis and antibacterial evaluation of 2,4-disubstituted-6-thiophenyl-pyrimidines” (Eur J Med Chem, 2019).
# Active and inactive are the calls of the source. No cut-off for these calls is given here.
# Experiments:
# [1] = system: Staphylococcus aureus; experiment: Antibacterial activity against methicillin-resistant Staphylococcus aureus isolate 7183 after 18 hrs by broth microdilution method; format: functional; details: isolate 7183, 18 h
# [2] = system: Staphylococcus aureus; experiment: Antibacterial activity against methicillin-resistant Staphylococcus aureus isolate 7587 after 18 hrs by broth microdilution method; format: functional; details: isolate 7587, 18 h
# [3] = system: Staphylococcus aureus; experiment: Antibacterial activity against methicillin-resistant Staphylococcus aureus isolate 7844 after 18 hrs by broth microdilution method; format: functional; details: isolate 7844, 18 h
# [4] = system: Staphylococcus aureus; experiment: Antibacterial activity against methicillin-resistant Staphylococcus aureus isolate 1651 after 18 hrs by broth microdilution method; format: functional; details: isolate 1651, 18 h
# [5] = system: Enterococcus faecalis; experiment: Antibacterial activity against Enterococcus faecalis ATCC 29212 after 18 hrs by broth microdilution method; format: functional; details: ATCC 29212, 18 h
# [6] = system: Staphylococcus aureus; experiment: Antibacterial activity against methicillin-resistant Staphylococcus aureus isolate 7813 after 18 hrs by broth microdilution method; format: functional; details: isolate 7813, 18 h
# [7] = system: Staphylococcus aureus; experiment: Antibacterial activity against methicillin-resistant Staphylococcus aureus isolate 7807 after 18 hrs by broth microdilution method; format: functional; details: isolate 7807, 18 h
# [8] = system: Staphylococcus aureus; experiment: Potency index, ratio of methicillin MIC to test compound MIC for methicillin-resistant Staphylococcus aureus ATCC BAA41; format: functional
# [9] = system: Enterococcus faecalis; experiment: Antibacterial activity against vancomycin-resistant Enterococcus faecalis ATCC 700221 after 18 hrs by broth microdilution method; format: functional; details: ATCC 700221, 18 h
# [10] = system: Staphylococcus aureus; experiment: Potency index, ratio of methicillin MIC to test compound MIC for methicillin-resistant Staphylococcus aureus ATCC 33591; format: functional
# [11] = system: Staphylococcus aureus; experiment: Antibacterial activity against methicillin-resistant Staphylococcus aureus isolate 3096 after 18 hrs by broth microdilution method; format: functional; details: isolate 3096, 18 h
# [12] = system: Staphylococcus aureus; experiment: Antibacterial activity against methicillin-resistant Staphylococcus aureus isolate 7717 after 18 hrs by broth microdilution method; format: functional; details: isolate 7717, 18 h
# [13] = system: Staphylococcus aureus; experiment: Antibacterial activity against methicillin-resistant Staphylococcus aureus isolate 7943 after 18 hrs by broth microdilution method; format: functional; details: isolate 7943, 18 h
# [14] = system: Staphylococcus aureus; experiment: Antibacterial activity against methicillin-resistant Staphylococcus aureus isolate 5056 after 18 hrs by broth microdilution method; format: functional; details: isolate 5056, 18 h
# [15] = system: Staphylococcus aureus; experiment: Antibacterial activity against methicillin-resistant Staphylococcus aureus isolate 6334 after 18 hrs by broth microdilution method; format: functional; details: isolate 6334, 18 h
# [16] = system: Staphylococcus aureus; experiment: Antibacterial activity against methicillin-resistant Staphylococcus aureus isolate 7682 after 18 hrs by broth microdilution method; format: functional; details: isolate 7682, 18 h
# [17] = system: Staphylococcus aureus; experiment: Antibacterial activity against methicillin-resistant Staphylococcus aureus isolate 7947 after 18 hrs by broth microdilution method; format: functional; details: isolate 7947, 18 h
# [18] = system: Staphylococcus aureus; experiment: Antibacterial activity against methicillin-resistant Staphylococcus aureus isolate 8078 after 18 hrs by broth microdilution method; format: functional; details: isolate 8078, 18 h
# [19] = system: Staphylococcus epidermidis; experiment: Antibacterial activity against Staphylococcus epidermidis ATCC 12228 after 18 hrs by broth microdilution method; format: functional; details: ATCC 12228, 18 h
# [20] = system: Staphylococcus aureus; experiment: Antibacterial activity against methicillin-resistant Staphylococcus aureus isolate 1708 after 18 hrs by broth microdilution method; format: functional; details: isolate 1708, 18 h
# [21] = system: Staphylococcus aureus; experiment: Antibacterial activity against methicillin-resistant Staphylococcus aureus ATCC BAA1720 after 18 hrs by broth microdilution method; format: functional; details: ATCC BAA1720, 18 h
# [22] = system: Staphylococcus aureus; experiment: Antibacterial activity against methicillin-resistant Staphylococcus aureus ATCC 43300 after 18 hrs by broth microdilution method; format: functional; details: ATCC 43300, 18 h
# [23] = system: Staphylococcus aureus; experiment: Antibacterial activity against methicillin-resistant Staphylococcus aureus isolate 7434 after 18 hrs by broth microdilution method; format: functional; details: isolate 7434, 18 h
# [24] = system: Staphylococcus aureus; experiment: Antibacterial activity against methicillin-resistant Staphylococcus aureus isolate 2931 after 18 hrs by broth microdilution method; format: functional; details: isolate 2931, 18 h
# [25] = system: Bacillus subtilis; experiment: Antibacterial activity against Bacillus subtilis 168 after 18 hrs by broth microdilution method; format: functional; details: subsp. subtilis str. 168, 18 h
# [26] = system: Staphylococcus aureus; experiment: Antibacterial activity against methicillin-resistant Staphylococcus aureus isolate 3123 after 18 hrs by broth microdilution method; format: functional; details: isolate 3123, 18 h
# [27] = system: Staphylococcus aureus; experiment: Antibacterial activity against methicillin-resistant Staphylococcus aureus isolate 2491 after 18 hrs by broth microdilution method; format: functional; details: isolate 2491, 18 h
# [28] = system: Staphylococcus aureus; experiment: Antibacterial activity against methicillin-resistant Staphylococcus aureus isolate 4127 after 18 hrs by broth microdilution method; format: functional; details: isolate 4127, 18 h
# [29] = system: Staphylococcus aureus; experiment: Antibacterial activity against methicillin-resistant Staphylococcus aureus isolate 1947 after 18 hrs by broth microdilution method; format: functional; details: isolate 1947, 18 h
# [30] = system: Staphylococcus aureus; experiment: Antibacterial activity against methicillin-resistant Staphylococcus aureus isolate 2350 after 18 hrs by broth microdilution method; format: functional; details: isolate 2350, 18 h
# [31] = system: Staphylococcus aureus; experiment: Antibacterial activity against methicillin-resistant Staphylococcus aureus ATCC BAA41 after 18 hrs by broth microdilution method; format: functional; details: ATCC BAA41, 18 h
# [32] = system: Staphylococcus aureus; experiment: Bactericidal activity against methicillin-resistant Staphylococcus aureus ATCC BAA41 after 18 hrs by broth microdilution method; format: functional; details: ATCC BAA41, 18 h
# [33] = system: Enterococcus faecium; experiment: Antibacterial activity against Enterococcus faecium ATCC 49624 after 18 hrs by broth microdilution method; format: functional; details: ATCC 49624, 18 h
# [34] = system: Staphylococcus aureus; experiment: Antibacterial activity against methicillin-resistant Staphylococcus aureus isolate 7536 after 18 hrs by broth microdilution method; format: functional; details: isolate 7536, 18 h
# [35] = system: Staphylococcus aureus; experiment: Potency index, ratio of methicillin MIC to test compound MIC for methicillin-resistant Staphylococcus aureus ATCC 43300; format: functional
# [36] = system: Staphylococcus epidermidis; experiment: Potency index, ratio of berberine MIC to test compound MIC for Staphylococcus epidermidis ATCC 12228; format: functional
# [37] = system: Staphylococcus aureus; experiment: Antibacterial activity against methicillin-resistant Staphylococcus aureus isolate 4955 after 18 hrs by broth microdilution method; format: functional; details: isolate 4955, 18 h
# [38] = system: Staphylococcus aureus; experiment: Ratio of MBC to MIC for methicillin-resistant Staphylococcus aureus ATCC BAA41; format: functional
# [39] = system: Staphylococcus aureus; experiment: Bactericidal activity against methicillin-resistant Staphylococcus aureus ATCC 43300 after 18 hrs by broth microdilution method; format: functional; details: ATCC 43300, 18 h
# [40] = system: Staphylococcus aureus; experiment: Antibacterial activity against methicillin-resistant Staphylococcus aureus isolate 7972 after 18 hrs by broth microdilution method; format: functional; details: isolate 7972, 18 h
# [41] = molecular target: T1, Cell division protein FtsZ (Staphylococcus aureus) (UniProt P0A031); experiment: Inhibition of recombinant Staphylococcus aureus FtsZ polymerization at 8 ug/ml by 90 degree light scattering-based fluorescence spectrometric analysis
# T1 sequence (whole entry): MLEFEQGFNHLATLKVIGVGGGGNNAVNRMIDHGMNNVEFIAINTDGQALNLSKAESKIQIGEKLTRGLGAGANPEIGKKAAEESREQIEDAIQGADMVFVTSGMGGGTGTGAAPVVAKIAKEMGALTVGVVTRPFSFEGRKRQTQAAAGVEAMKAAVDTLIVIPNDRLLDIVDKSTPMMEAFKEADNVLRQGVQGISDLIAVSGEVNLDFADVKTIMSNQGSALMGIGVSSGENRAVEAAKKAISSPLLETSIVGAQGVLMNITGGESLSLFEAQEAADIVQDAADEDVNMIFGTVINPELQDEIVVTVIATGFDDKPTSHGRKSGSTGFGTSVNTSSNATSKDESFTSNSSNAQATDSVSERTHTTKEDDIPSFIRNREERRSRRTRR
smiles,measurement,setting,value
FC(F)(F)c1ccc(CN2CCCN(CCc3cc(-c4cccs4)nc(-c4ccncc4)n3)CC2)cc1,MIC90,[1],4 µg/mL
same,MIC90,[2],4 µg/mL
same,MIC90,[3],4 µg/mL
same,MIC90,[4],8 µg/mL
same,MIC90,[5],4 µg/mL
same,MIC90,[6],8 µg/mL
same,MIC90,[7],4 µg/mL
same,Ratio,[8],>100
same,MIC90,[9],4 µg/mL
same,Ratio,[10],>100
same,MIC90,[11],4 µg/mL
same,MIC90,[12],4 µg/mL
same,MIC90,[13],4 µg/mL
same,MIC90,[14],4 µg/mL
same,MIC90,[15],4 µg/mL
same,MIC90,[16],8 µg/mL
same,MIC90,[17],4 µg/mL
same,MIC90,[18],4 µg/mL
same,MIC90,[19],4 µg/mL
same,MIC90,[20],8 µg/mL
same,MIC90,[21],4 µg/mL
same,MIC90,[22],4 µg/mL
same,MIC90,[23],8 µg/mL
same,MIC90,[24],4 µg/mL
same,MIC90,[25],4 µg/mL
same,MIC90,[26],4 µg/mL
same,MIC90,[27],8 µg/mL
same,MIC90,[28],4 µg/mL
same,MIC90,[29],4 µg/mL
same,MIC90,[30],4 µg/mL
same,MIC90,[31],4 µg/mL
same,MBC,[32],4 µg/mL
same,MIC90,[33],4 µg/mL
same,MIC90,[34],4 µg/mL
same,Ratio,[35],>100
same,Ratio,[36],50 - 100
same,MIC90,[37],4 µg/mL
same,Ratio,[38],1
same,MBC,[39],8 µg/mL
same,MIC90,[40],4 µg/mL
CC(C)(C)c1ccc(CN2CCCN(CCc3cc(-c4cccs4)nc(-c4ccncc4)n3)CC2)cc1,MIC90,[1],2 µg/mL
same,MIC90,[2],2 µg/mL
same,MIC90,[3],2 µg/mL
same,MIC90,[4],2 µg/mL
same,MIC90,[5],2 µg/mL
same,MIC90,[6],2 µg/mL
same,MIC90,[7],2 µg/mL
same,Ratio,[8],>100
same,MIC90,[9],4 µg/mL
same,Ratio,[10],>100
same,inhibition,[41],Active
same,MIC90,[11],2 µg/mL
same,MIC90,[12],2 µg/mL
same,MIC90,[13],2 µg/mL
same,MIC90,[14],2 µg/mL
same,MIC90,[15],2 µg/mL
same,MIC90,[16],4 µg/mL
same,MIC90,[17],2 µg/mL
same,MIC90,[18],2 µg/mL
same,MIC90,[19],2 µg/mL
same,MIC90,[20],4 µg/mL
same,MIC90,[21],2 µg/mL
same,MIC90,[22],2 µg/mL
same,MIC90,[23],2 µg/mL
same,MIC90,[24],2 µg/mL
same,MIC90,[25],2 µg/mL
same,MIC90,[26],2 µg/mL
same,MIC90,[27],4 µg/mL
same,MIC90,[28],2 µg/mL
same,MIC90,[29],2 µg/mL
same,MIC90,[30],2 µg/mL
same,MIC90,[31],2 µg/mL
same,MBC,[32],2 µg/mL
same,MIC90,[33],4 µg/mL
same,MIC90,[34],2 µg/mL
same,Ratio,[35],>100
same,Ratio,[36],50 - 100
same,MIC90,[37],2 µg/mL
same,Ratio,[38],1
same,MBC,[39],4 µg/mL
same,MIC90,[40],2 µg/mL
